Reference: US10172911B2, “Methods of modulating erythropoiesis with arginine vasopressin receptor 1B molecules” (The United States of America, as represented by the …, priority 2013, dated 2019)
Entries after “also recorded” stand apart in the source; their conditions may differ.

Tests used:
β-catenin = β-catenin immunostaining of AVP-stimulated human CD34+ cells; assay type: cell-based; details: 10^−10 M, 24 hours
From the text: FIGS. 3A-3D show studies of signaling pathways. FIG. 3A provides results from CFU assays showing E-CFU and GM-CFU numbers/1000 plated cells. […] Error bars represent means±SD * p<0.05, ** p<0.01, unpaired t-test. […] The cells were then fixed with 4% paraformaldehyde and washed before immunostaining. Following permeabilization with Triton-X 100 a primary antibody to β-catenin was applied followed by a fluorescent secondary antibody. The β-catenin translocated to the nucleus at the 10^−10 AVP concentration confirming the activation of the Wnt pathway. Scale: 10 μm. […] Using Q-PCR to detect changes in genes that reflect Wnt pathway activation, increases in CCND1, MYC and LEF1 in response to AVP stimulation were observed.
FIGS. 8A-8C show AVP stimulation results in the nuclear translocation of β-catenin affecting the Wnt pathway. […] The cells were then fixed with 4% paraformaldehyde and washed before immunostaining. Following permeabilization with Triton-X 100, a primary antibody to β-catenin was applied followed by a fluorescent secondary antibody. The β-catenin translocated to the nucleus at the 10^−10 M AVP concentration confirming the activation of the Wnt pathway. Scale: 10 μm. FIG. 8B CFU assays showing E-CFU and GM-CFU numbers/1000 plated cells. […] Error bars represent means±SD * p<0.05, ** p<0.01, unpaired t-test.

BM erythroid cells = experiment: Bone marrow erythroid populations after injection of AVP, AVPR1B agonist or EPO (flow cytometry, EdU); assay type: in vivo, mouse
Description: In vivo AVP-treated/hemorrhaged/control mice were IP injected with 10 μM/1000 g BW 5-ethynyl-2′-deoxyuridine (EdU: Life Technologies) for 2 hours. Single cell suspensions from the tibial and femoral bone marrows of mice (n=5 in each group) were prepared. After lysing the cells with ACK buffer, cells of the erythroid lineage were labeled with antibodies against TER-119 (BD Pharmingen) and CD71 (BD Pharmingen) or CD44 (BD Pharmingen) conjugated with FITC or PE fluorophores. After washing with FACS buffer, cells were fixed/permeabilized according to the manufacturer's recommendation (Life Technologies). Incorporated EdU molecules were visualized by a click reaction with Alexa Fluor 647-conjugated picolyl-azide and cell nuclei were stained with DAPI. Cell cycle characteristics of erythroid cells were detected with a Beckman-Coulter MoFlo Astrios flow cytometer.
For lineage negative, Sca-1 positive and c-kit positive (LSK) cell sorting, rat anti-mouse lineage antibodies (anti CD4, CD8, B220, Ter119, Gr-1, CD11b) were added to bone marrow cell suspension after ACK lysis and cells were depleted using anti-rat magnetic beads (Biomag anti rat IgG, Qiagen). Lineage negative cells were stained with c-kit PE/Cy5 and Sca-1-FITC antibodies and the double positive population was further enriched with anti-PE and anti-FITC magnetic beads (Miltenyi). LSK cells were sorted on a DAKO Cytomation MoFlo cell sorter. For LSK subpopulation sorting lineage depleted cells were stained for c-kit, Sca-1, CD48, CD150 and CD34 and 4 LSK subpopulations were sorted using the gating strategy described by Wilson et al. (34). Sorted cells from HSC (LSK, CD34^−, CD48^−, CD150^+), MPP1 (LSK, CD34^+, CD48^−, CD150^+), MPP2 (LSK, CD34^+, CD48^+, CD150^+) and MPP3/4 (LSK, CD34^+, CD48^+, CD150^−) subpopulations were plated in 1×PBS onto coated glass slides fixed with 2% PFA and immunostained for AVPR1B. Erythropoietic progenitors were sorted based on CD71 and Ter119 markers. All cells were sorted using a MoFlo Astrios cell sorter (Beckman Coulter). Competitive Repopulation Assay
The inventors determined that AVP induced a fast hematocrit response in severe anemia that is independent of EPO. AVP receptors in the HSPCs was confirmed and they next decided to examine how AVP affects the erythroid lineage cells (developmental stages) in the BM. […] In cell populations sorted as above, the presence of AVPR1B and EPO receptor (EPOR) mRNA using QPCR was also determined. […] AVPR2 mRNA was detected in all populations, whereas AVPR1A mRNA was barely detectable.

C57BL6 male mice = experiment: Hemorrhage anemia model, Alzet pump delivery; assay type: in vivo, mouse
Description: Mice were anesthetized with isoflurane. Twenty five percent of their calculated circulating blood volume (calculated based on Animal Research Advisory Committee Guidelines for survival bleeding of mice and rats, OACU, NIH) was drained from the retro-orbital plexus.
The reticulocyte ratio of peripheral blood was determined using the Retic-Count flow kit (BD Biosciences) according to the manufacturer's instructions. Hematocrit values were measured with an automated analyzer and microhematocrit tubes. The reticulocyte index was calculated as follows: reticulocyte ratio %/total gated cells×hematocrit/45.
To infuse vasopressin into the mice, AVP filled ALZET pumps were implanted subcutaneously on the dorsal aspect of the neck (5 ug/day, Alzet 1007D—7 days, 2002-14 days). Vasopressin was also given immediately and 6 hours later as a bolus injection (100 μg/kg). Alzet pumps were inserted subcutaneously. The dimensions and pump specification are: ALZET, (DURECT Corporation, Cupertino, Calif., USA) mini-osmotic pump models 1007D or 2002. The pumps deliver 0.5 μl/h of the desired substance for a for 2-week period. In some cases, erythropoietin antibody (100 μg/mice) was given before anesthesia with the corresponding control antibody. […] Following the initial hemorrhage blood samples were taken at 2, 4 and in some cases 6 days later to determine hematocrit and corrected reticulocyte values.

human CD34^+ cells = experiment: Brattleboro/LE rat BMSC and human CD34+ progenitor co-culture, BrdU; assay type: cell-based; details: AVP 10^−13 M
Description: Rat BMSCs were isolated and cultured from the bone marrow of 5-6 weeks old male Brattleboro (animals that lack the ability to produce vasopressin) and Long-Evans rats (control strain for the Brattleboro rats) as described before. For flow cytometry studies, 100000 rat BMSCs per well were plated in αMEM medium (20% FBS) in 12 well plates in quadruplicates and incubated overnight. Next day, medium was removed and 200000 human CD34 cells per well were added in Stemspan medium with factors (human SCF, TPO, FLT3L and G-CSF 100 ng/ml). Co-culture was stimulated with AVP or left unstimulated (PBS) and next day BrdU was added. After 24 hours the cells were trypsinized, brought up in αMEM (20% FBS), resuspended and strained through 70 μm cell strainer. For normalization, Sigma beads were added to each sample tube. Cells were washed with FACS buffer and stained for human CD34 and CD38. The subsequent steps were done according to the BD BrdU Flow kit protocol. At flow cytometry measurements, cell numbers were normalized to Sigma bead numbers.

Structure (SMILES): NC(=O)CC[C@@H]1NC(=O)[C@H](Cc2ccccc2)NC(=O)[C@H](Cc2ccc(O)cc2)NC(=O)[C@@H](N)CSSC[C@@H](C(=O)N2CCC[C@H]2C(=O)N[C@@H](CCCN=C(N)N)C(=O)NCC(N)=O)NC(=O)[C@H](CC(N)=O)NC1=O [AVP, [Arg8]-Vasopressin]
- nuclear translocation of β-catenin (β-catenin): drives nuclear translocation of β-catenin; also recorded: had this effect
- BM erythroid progenitors (Ter-119, CD 71 gated area) (BM erythroid cells; 16 hours after injection): clear increase in progenitors
- apoptosis in the late progenitor populations (BM erythroid cells; EdU, Annexin V and DAPI): significant decrease in apoptosis
- effect on more matured erythroid populations (BM erythroid cells; after hemorrhage, AVP vs EPO): much more robust effect than EPO
- numbers of more mature erythroid cells (polychromatic and orthochromatic erythroblasts/reticulocytes) (BM erythroid cells; bone marrow, flow cytometry): significantly increased
- corrected reticulocyte numbers (C57BL6 male mice; 2 days post hemorrhage): significant increase; also recorded: had increased
- hematocrit (C57BL6 male mice; 2 days post hemorrhage): significant increase
- hematocrit (C57BL6 male mice; 4 days post hemorrhage): significantly higher hematocrit
- number of highly fluorescent (high intensity) reticulocytes (C57BL6 male mice; anemia models, FACS with thiazol orange): significantly increased
- hematocrits (C57BL6 male mice; between days 2 and 4 after removal of 25% of blood volume): also increased
- recovery times (C57BL6 male mice; hemorrhage, FIG. 9D): significantly improved recovery times
- proliferation of CD34+ cells (human CD34^+ cells; Brattleboro-derived BMSCs): failed to induce proliferation
- proliferation of CD34+ cells (human CD34^+ cells; LE BMSCs): did cause CD34^+ cells to proliferate
